Measured values from ChEMBL document CHEMBL3046211, “Synthesis, antimicrobial, analgesic activity, and molecular docking studies of novel 1-(5,7-dichloro-1,3-benzoxazol-2-yl)-3-phenyl-1H-pyrazole-4-carbaldehyde derivatives” (2013).
Converted amounts (≈) assume the structure as drawn.

Experiments:
Escherichia coli [1] = test: Antibacterial activity against Escherichia coli pateint isolate; format: functional
Staphylococcus aureus [2] = test: Antibacterial activity against Staphylococcus aureus pateint isolate; format: functional
Mus musculus = test: Analgesic activity in Swiss albino mouse assessed as protection against acetic acid-induced writhing at 100 mg/kg, po administered 1 hr prior to acetic acid-challenge measured after 5 mins for 20 mins relative to control; format: functional
Aspergillus niger [3] = test: Antifungal activity against Aspergillus niger at 40 ug/ml after 72 hrs by agar well diffusion method; format: functional; details: read-out: IZ
Aspergillus niger [4] = test: Antifungal activity against Aspergillus niger; format: functional
Escherichia coli [5] = test: Antibacterial activity against Escherichia coli pateint isolate at 40 ug/ml after 24 hrs by agar well diffusion method; format: functional
Bacillus subtilis [6] = test: Antibacterial activity against Bacillus subtilis pateint isolate; format: functional
Candida albicans [7] = test: Antifungal activity against Candida albicans at 40 ug/ml after 72 hrs by agar well diffusion method; format: functional; details: read-out: IZ
Salmonella typhi [8] = test: Antibacterial activity against Salmonella typhi pateint isolate at 40 ug/ml after 24 hrs by agar well diffusion method; format: functional, Salmonella enterica subsp. enterica serovar Typhi; details: Salmonella enterica, read-out: IZ
Salmonella typhi [9] = test: Antibacterial activity against Salmonella typhi pateint isolate; format: functional, Salmonella enterica subsp. enterica serovar Typhi; details: Salmonella enterica
Bacillus subtilis [10] = test: Antibacterial activity against Bacillus subtilis pateint isolate at 40 ug/ml after 24 hrs by agar well diffusion method; format: functional; details: read-out: IZ
Candida albicans [11] = test: Antifungal activity against Candida albicans; format: functional
Staphylococcus aureus [12] = test: Antibacterial activity against Staphylococcus aureus pateint isolate at 40 ug/ml after 24 hrs by agar well diffusion method; format: functional; details: read-out: IZ
Salmonella typhi [13] = test: Antibacterial activity against Salmonella typhi pateint isolate at 40 ug/100 ul after 24 hrs by agar well diffusion method; format: functional, Salmonella enterica subsp. enterica serovar Typhi
Aspergillus niger [14] = test: Antifungal activity against Aspergillus niger at 40 ug/100 ul after 72 hrs by agar well diffusion method; format: functional
Candida albicans [15] = test: Antifungal activity against Candida albicans at 40 ug/100 ul after 72 hrs by agar well diffusion method; format: functional

Structure (SMILES)	MIC (Escherichia coli [1])	MIC (Staphylococcus aureus [2])	Activity (Mus musculus)	zone of inhibition at 40 µg/mL (Aspergillus niger [3])	MIC (Aspergillus niger [4])	inhibition zone (IZ) (Escherichia coli [5])	MIC (Bacillus subtilis [6])	zone of inhibition at 40 µg/mL (Candida albicans [7])	zone of inhibition at 40 µg/mL (Salmonella typhi [8])	MIC (Salmonella typhi [9])	zone of inhibition at 40 µg/mL (Bacillus subtilis [10])	MIC (Candida albicans [11])	zone of inhibition at 40 µg/mL (Staphylococcus aureus [12])	inhibition zone (IZ) (Salmonella typhi [13])	inhibition zone (IZ) (Aspergillus niger [14])	inhibition zone (IZ) (Candida albicans [15])
O=Cc1cn(-c2nc3cc(Cl)cc(Cl)c3o2)nc1-c1ccc(O)cc1	30 µg/mL (≈ 80.2 µM)	20 µg/mL (≈ 53.4 µM)	55.78%	22 mm	30 µg/mL (≈ 80.2 µM)	22 mm	20 µg/mL (≈ 53.4 µM)	22 mm	21 mm	30 µg/mL (≈ 80.2 µM)	23 mm	20 µg/mL (≈ 53.4 µM)	23 mm			
Cc1ccc(-c2nn(-c3nc4cc(Cl)cc(Cl)c4o3)cc2C=O)cc1	40 µg/mL (≈ 107 µM)	30 µg/mL (≈ 80.6 µM)	51.4%	19 mm	30 µg/mL (≈ 80.6 µM)	21 mm	30 µg/mL (≈ 80.6 µM)	19 mm	20 mm	30 µg/mL (≈ 80.6 µM)	20 mm	30 µg/mL (≈ 80.6 µM)	21 mm			
O=Cc1cn(-c2nc3cc(Cl)cc(Cl)c3o2)nc1-c1ccc(Br)cc1	20 µg/mL (≈ 45.8 µM)	20 µg/mL (≈ 45.8 µM)	54.63%	22 mm	20 µg/mL (≈ 45.8 µM)	22 mm	20 µg/mL (≈ 45.8 µM)	23 mm	21 mm	30 µg/mL (≈ 68.6 µM)	22 mm	30 µg/mL (≈ 68.6 µM)	23 mm			
O=Cc1cn(-c2nc3cc(Cl)cc(Cl)c3o2)nc1-c1ccc(Cl)c(Cl)c1	30 µg/mL (≈ 70.2 µM)	30 µg/mL (≈ 70.2 µM)	50%	22 mm	40 µg/mL (≈ 93.7 µM)	22 mm	30 µg/mL (≈ 70.2 µM)	22 mm	20 mm	30 µg/mL (≈ 70.2 µM)	22 mm	40 µg/mL (≈ 93.7 µM)	22 mm			
COc1ccc(-c2nn(-c3nc4cc(Cl)cc(Cl)c4o3)cc2C=O)cc1	40 µg/mL (≈ 103 µM)	30 µg/mL (≈ 77.3 µM)	50.27%	20 mm	30 µg/mL (≈ 77.3 µM)	22 mm	40 µg/mL (≈ 103 µM)	20 mm	19 mm	40 µg/mL (≈ 103 µM)	20 mm	40 µg/mL (≈ 103 µM)	19 mm			
CC(=O)Oc1ccccc1C(=O)O [ASPIRIN]			58.74%													
O=C(O)c1cn(C2CC2)c2cc(N3CCNCC3)c(F)cc2c1=O [CIPROFLOXACIN]														21 mm		
OC(Cn1cncn1)(Cn1cncn1)c1ccc(F)cc1F [FLUCONAZOLE]															22 mm	23 mm
